Experimental data from PubChem BioAssay AID330 (DTP/NCI, 2004).
Where “and” joins values, the source holds several entries; their conditions need not be identical. Equal entries are not always repeated. Inconclusive results and toxic doses are left out. Rule for the calls: active = survival T/C of 150% or more; inactive = T/C below 125% in these data.

Tested on: P388 leukemia ip, CD2F1 mice, survival T/C
Assay: NCI In Vivo Anticancer Drug Screen. Data for tumor model P388 Leukemia (intraperitoneal) in CD2F1 (CDF1) mice
Conditions: endpoint: median survival time, higher = longer survival
Procedure, shortened: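 Mice carrying the transplanted tumor received test compound or vehicle. Survival was recorded in each group, and the value is the treated-group measurement divided by that of the vehicle-treated control group.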

[1] = dose: 50.0 mg/kg/injection, schedule: Q01DX005 (ip), vehicle: Klucel (hydroxypropylcellulose) (HPC)
[2] = dose: 100.0 mg/kg/injection, schedule: Q01DX005 (ip), vehicle: Klucel (hydroxypropylcellulose) (HPC)
[3] = dose: 60.0 mg/kg/injection, schedule: Q01DX005 (ip), vehicle: saline with Tween-80
[4] = dose: 120.0 mg/kg/injection, schedule: Q01DX005 (ip), vehicle: saline with Tween-80
[5] = dose: 240.0 mg/kg/injection, schedule: Q01DX005 (ip), vehicle: saline with Tween-80
[6] = dose: 3.12 mg/kg/injection, schedule: Q01DX009 (ip), vehicle: saline
[7] = dose: 6.25 mg/kg/injection, schedule: Q01DX009 (ip), vehicle: saline
[8] = dose: 12.5 mg/kg/injection, schedule: Q01DX009 (ip), vehicle: saline
[9] = dose: 25.0 mg/kg/injection, schedule: Q01DX009 (ip), vehicle: saline
[10] = dose: 0.78 mg/kg/injection, schedule: Q01DX009 (ip), vehicle: saline
[11] = dose: 1.56 mg/kg/injection, schedule: Q01DX009 (ip), vehicle: saline
[12] = dose: 50.0 mg/kg/injection, schedule: Q01DX009 (ip), vehicle: saline

Measured: T/C

CC[As](=O)(O)CC(C)C
inactive: dose: 25.0 mg/kg/injection, schedule: Q04DX002 (ip), vehicle: saline 100 % of control | dose: 50.0 mg/kg/injection, schedule: Q04DX002 (ip), vehicle: saline 100 % of control

O=C(N/N=C/c1ccccn1)c1ccccc1[O-].O=C(N/N=C/c1ccccn1)c1ccccc1[O-].[Mn+2]
inactive: [1] 103 % of control | [2] 101 % of control | dose: 200.0 mg/kg/injection, schedule: Q01DX005 (ip), vehicle: Klucel (hydroxypropylcellulose) (HPC) 107 % of control

CC(C)CC(=O)CC(=O)C(C)(C)C.CC(C)CC(=O)CC(=O)C(C)(C)C.CC(C)CC(=O)CC(=O)C(C)(C)C.CC(C)CC(=O)CC(=O)C(C)(C)C.[Ce]
inactive: dose: 50.0 mg/kg/injection, schedule: Q01DX009 (ip), vehicle: distilled water + alcohol 106 % of control | dose: 100.0 mg/kg/injection, schedule: Q01DX009 (ip), vehicle: distilled water + alcohol 103 % of control | dose: 200.0 mg/kg/injection, schedule: Q01DX009 (ip), vehicle: distilled water + alcohol 106 % of control

CC[N+](C)(CC)CCOC(C)=O
inactive: dose: 6.25 mg/kg/injection, schedule: Q01DX001 (ip), vehicle: saline 100 % of control | dose: 12.5 mg/kg/injection, schedule: Q01DX001 (ip), vehicle: saline 100 % of control | dose: 25.0 mg/kg/injection, schedule: Q01DX001 (ip), vehicle: saline with Tween-80 101 % of control | dose: 25.0 mg/kg/injection, schedule: Q01DX001 (ip), vehicle: saline 98 % of control

O=c1[nH][nH]c(=O)c2[nH]cnc12
inactive: dose: 50.0 mg/kg/injection, schedule: Q04DX003 (ip), vehicle: saline with Tween-80 98 % of control | dose: 100.0 mg/kg/injection, schedule: Q04DX003 (ip), vehicle: saline with Tween-80 100 % of control | dose: 200.0 mg/kg/injection, schedule: Q04DX003 (ip), vehicle: saline with Tween-80 100 % of control | dose: 400.0 mg/kg/injection, schedule: Q04DX003 (ip), vehicle: saline with Tween-80 106 % of control

Cc1ncc(CO)c(C2NCCS2)c1O (stereo unspecified)
inactive: [3] 100 % of control | [4] 107 % of control | [5] 107 % of control

CC(C)(C)C(=O)/C=C/c1ccc(Cl)c(Cl)c1
inactive: dose: 50.0 mg/kg/injection, schedule: Q01DX009 (ip), vehicle: Klucel (hydroxypropylcellulose) (HPC) 104 % of control | dose: 100.0 mg/kg/injection, schedule: Q01DX009 (ip), vehicle: Klucel (hydroxypropylcellulose) (HPC) 107 % of control | dose: 200.0 mg/kg/injection, schedule: Q01DX009 (ip), vehicle: Klucel (hydroxypropylcellulose) (HPC) 99 % of control

O=C(O)C1CCC(=O)N1Cc1c[nH]c2ccccc12 (stereo unspecified)
inactive: [3] 98 % of control | [4] 94 % of control | [5] 97 % of control

[N-]=[N+]=CC(=O)NCC(=O)NNC(=O)c1ccccc1
inactive: [6] 92 % of control | [7] 87 % of control | [8] 100 % of control | [9] 87 % of control

Cn1c(=O)c2cc3c(cc2c2ccccc21)OCO3
inactive: dose: 25.0 mg/kg/injection, schedule: Q01DX009 (ip), vehicle: other 90 % of control | dose: 50.0 mg/kg/injection, schedule: Q01DX009 (ip), vehicle: other 93 % of control | dose: 100.0 mg/kg/injection, schedule: Q01DX009 (ip), vehicle: other 90 % of control | dose: 200.0 mg/kg/injection, schedule: Q01DX009 (ip), vehicle: other 90 % of control | dose: 400.0 mg/kg/injection, schedule: Q01DX009 (ip), vehicle: other 93 % of control

O=C(O)CSC(CC(=O)O)C(F)(F)C(F)(F)C(F)(F)F (stereo unspecified)
inactive: dose: 176.0 mg/kg/injection, schedule: Q04DX003 (ip), vehicle: saline 100 % of control | dose: 264.0 mg/kg/injection, schedule: Q04DX003 (ip), vehicle: saline 95 % of control

CC(=O)N(c1nc2ccccc2s1)N1C(=O)c2ccccc2C1=O
inactive: dose: 60.0 mg/kg/injection, schedule: Q01DX005 (ip), vehicle: Klucel (hydroxypropylcellulose) (HPC) 98 % of control | dose: 120.0 mg/kg/injection, schedule: Q01DX005 (ip), vehicle: Klucel (hydroxypropylcellulose) (HPC) 94 % of control | dose: 240.0 mg/kg/injection, schedule: Q01DX005 (ip), vehicle: Klucel (hydroxypropylcellulose) (HPC) 90 % of control

NC(N)=N/C(N)=N\c1nn[nH]n1
inactive: dose: 100.0 mg/kg/injection, schedule: Q01DX001 (ip), vehicle: saline 95 % of control | dose: 200.0 mg/kg/injection, schedule: Q01DX001 (ip), vehicle: saline 100 % of control | dose: 400.0 mg/kg/injection, schedule: Q01DX001 (ip), vehicle: saline 100 % of control

C=C(C)C(=O)OC1CCC2Cc3occ(C)c3C(OC(=O)C(=C)C)C2(C)C1C (stereo unspecified)
inactive: dose: 20.0 mg/kg/injection, schedule: Q01DX009 (ip), vehicle: saline with Tween-80 93 % of control | dose: 40.0 mg/kg/injection, schedule: Q01DX009 (ip), vehicle: saline with Tween-80 102 % of control | dose: 80.0 mg/kg/injection, schedule: Q01DX009 (ip), vehicle: saline with Tween-80 93 % of control | dose: 160.0 mg/kg/injection, schedule: Q01DX009 (ip), vehicle: saline with Tween-80 93 % of control

O=C1SCCC1n1c(=O)c1=O (stereo unspecified)
inactive: dose: 25.0 mg/kg/injection, schedule: Q01DX005 (ip), vehicle: saline with Tween-80 100 % of control | dose: 50.0 mg/kg/injection, schedule: Q01DX005 (ip), vehicle: saline with Tween-80 98 % of control | [3] 94 % of control | dose: 100.0 mg/kg/injection, schedule: Q01DX005 (ip), vehicle: saline with Tween-80 105 % of control | [4] 99 % of control | dose: 200.0 mg/kg/injection, schedule: Q01DX005 (ip), vehicle: saline with Tween-80 96 % of control | [5] 90 % of control | dose: 400.0 mg/kg/injection, schedule: Q01DX005 (ip), vehicle: saline with Tween-80 99 % of control

COc1ccc(CCNC(=O)Cc2ccc3cc(OC)c(OC)cc3c2)cc1OC
inactive: dose: 50.0 mg/kg/injection, schedule: Q01DX009 (ip), vehicle: saline with Tween-80 120 % of control | dose: 100.0 mg/kg/injection, schedule: Q01DX009 (ip), vehicle: saline with Tween-80 100 % of control | dose: 200.0 mg/kg/injection, schedule: Q01DX009 (ip), vehicle: saline with Tween-80 90 % of control

CC(=N/NC(=S)NCCN1CCCCC1)/C(C)=N\NC(=S)NCCN1CCCCC1
inactive: [10] 106 % of control | [11] 94 % of control | dose: 3.13 mg/kg/injection, schedule: Q01DX009 (ip), vehicle: saline 97 % of control | [7] 103 % of control | dose: 12.5 mg/kg/injection, schedule: Q04DX003 (ip), vehicle: saline with Tween-80 108 % of control | dose: 25.0 mg/kg/injection, schedule: Q04DX003 (ip), vehicle: saline with Tween-80 101 % of control

CNCc1cccc2ccnc(C)c12
inactive: dose: 100.0 mg/kg/injection, schedule: Q01DX001 (ip), vehicle: saline with Tween-80 100 % of control | dose: 200.0 mg/kg/injection, schedule: Q01DX001 (ip), vehicle: saline with Tween-80 99 % of control | dose: 400.0 mg/kg/injection, schedule: Q01DX001 (ip), vehicle: saline with Tween-80 96 % of control

S=C(SSC(=S)N(Cc1ccccc1)Cc1ccccc1)N(Cc1ccccc1)Cc1ccccc1
inactive: [3] 96 % of control | [4] 103 % of control | [5] 96 % of control

Cc1ncc[nH]1
inactive: [12] 90 % of control | dose: 100.0 mg/kg/injection, schedule: Q01DX009 (ip), vehicle: saline 92 % of control | dose: 200.0 mg/kg/injection, schedule: Q01DX009 (ip), vehicle: saline 89 % of control

Nc1ccc(O)c(N)c1
inactive: [10] 99 % of control | [11] 96 % of control | [6] 102 % of control | [7] 105 % of control

O=C(O)c1cn2c3c(cc(N4CCN(CCO)CC4)cc3c1=O)SCC2
inactive: [3] 104 % of control | [4] 113 % of control | [5] 105 % of control

COC(=O)OC(C#N)c1ccc([N+](=O)[O-])cc1 (stereo unspecified)
inactive: [8] 99 % of control and 88 % of control | [9] 93 % of control and 97 % of control | [12] 90 % of control and 97 % of control | dose: 50.0 mg/kg/injection, schedule: Q01DX009 (ip), vehicle: suspension in saline 97 % of control

COc1cc2c(c3c1c(=O)c1cccc(F)c1n3C)C=CC(C)(C)O2
inactive: dose: 25.0 mg/kg/injection, schedule: Q01DX005 (ip), vehicle: Klucel (hydroxypropylcellulose) (HPC) 113 % of control | [1] 109 % of control and 110 % of control | [2] 120 % of control
